# Experimental data taken from patent US8841285B2, “Potent immunosuppressive agents, derivatives and uses” (priority 2002, dated 2014).
# pIC50: −log10 of the molar value.
# Assays:
# RKO cells = test: cell proliferation assay, RKO cells; format: cell-based; settings: Homo sapiens
# Procedure: Cell Proliferation Assay. 1×10^5 of indicated cells in each well of a 96-well plate were treated with indicated compounds for 24 h followed by addition of 0.11 μCi of [^3H]-thymidine (6.7 Ci/mmol) per well for 6 h, followed by harvesting to GF/C filtermats using a cell harvester. Filtermats were air-dried and scintillation counted. IC50s were determined from quadruplicate data readings and curve-fitting analysis.
# HeLa cells = format: cell-based
# 293T cells = test: cellular polyribosome profiles; format: cell-based; settings: 30 min treatment
# Procedure: Cellular polyribosome profiles. 293T cells were treated as indicated for 30 min. Cells were washed twice with ice-cold PBS and pipetted for 5 min in 500 μl of chilled TMK100 buffer (20 mM Tris-HCl pH 7.4, 5 mM MgCl2 100 mM KCl, 2 mM DTT, 1% Triton X-100 and 100 U/ml RNAsin in DEPC water). After clearing at 10,000×g (10 min) at 4° C., the supernatant (S10) was layered onto 11 ml, 15-45% linear sucrose gradient containing 20 mM HEPES pH 7.4, 100 mM KCl, 5 mM MgCl2 and 2 mM DTT. Ultracentrifugation at 40,000 rpm for 1.5 h at 4° C. was performed in a suitable rotor. Fractions were collected from the top of the gradient by injection of Flurinert FC-40 from bottom of centrifuge tube. Gradient profiles were monitored at 254 nm. For immunoblotting, 7 mg of total protein were processed as described above, followed by collection of 500 μl fractions were collected from the top. 100 μl aliquots of each were boiled in SDS sample buffer, followed by SDS-PAGE and immunoblotting.
# [1] = system: cap-dependent translation; test: in vitro translation in RRL, bicistronic reporter, cap-dependent cistron; format: biochemical, rabbit; settings: HCV IRES bicistronic reporter
# Procedure: In vitro Translation and Transcription. pSP/(CAG)33/FF/HCV/Ren·pA51 and pKS/FF/EMC/Ren were linearized by BamHI, then purified by phenol:chloroform extraction and ethanol precipitation, and dissolved in water. pSP/(CAG)33/FF/HCV/Ren·A51 and pKS/FF/EMC/Ren were individually transcribed using a large scale RNA production system in the presence of m7Gppp cap analog followed by incubation with DNase as described by the manufacturer. Resulting RNA was purified using a kit as described by the manufacturer. Translation was performed using a rabbit reticulocyte lysate system as per instructions. Briefly, 200 ng of purified RNA was combined in a 20 μl reaction containing 10 μl RRL, 0.2 μl each of minus Met and minus Leu amino acid mixtures, 70 mM KCl, 2 mM DTT, 1× translation buffer, and 10 units of RNasin. Compounds or DMSO were added to a final DMSO concentration of 2%. Reactions were incubated at 30° C. for 1.5 h, then 5 μl of the reaction mixture was assayed for luciferase activity as per instructions of luciferas reporter assay system.
Compound,pIC50 (RKO cells),stress granule formation (HeLa cells),effect on polysome profile (293T cells),inhibition of cap- versus HCV IRES-dependent translation [1]
"CC(/C=C/C(C)=C/[C@@H]1Cc2nc(cs2)[C@@H](C)CC(NCC(=O)NCCOCCOCCNC(=O)CCCC[C@@H]2SCC3NC(=O)NC32)CC(=O)O[C@@H](C)C/C(C)=C/C=C\C(=O)O1)=C\CN(C)C (some centres unmarked) [B-PatA, Biotin-PEO-Pateamine A]",> 7.82,,,
"C[C@@H]1C[C@@H]([C@H](O)CC2CC(=O)NC(=O)C2)C(=O)[C@@H](C)C1 [CHX, cycloheximide]",,did not induce stress granule formation,did not perturb the sucrose gradient profile,nearly equal inhibition
arsenite,,eIF4B co-localized with TIA-1 in stress granules,,
